≈ marks a conversion by molar mass, not a printed value. Where two headings read alike, the source gives them in different places.
Assays:
S. aureus = test: MIC with/without bovine pulmonary surfactant, S. aureus; format: cell-based, Staphylococcus aureus; conditions: for MICRZ, Resazurin: +BPS: 2.5% v/v BPS; for MICRZ, Resazurin: no BPS
Protocol: (§1) Clinical isolates were identified by the submitting laboratories and confirmed by JMI Laboratories using standard bacteriologic algorithms and methodologies, including Matrix-Assisted Laser Desorption Ionization-Time Of Flight Mass Spectrometry (MALDI-TOF MS). When necessary, MALDI-TOF MS was performed using the Bruker Daltonics MALDI Biotyper (Billerica, Mass., USA), following manufacturer's instructions. Isolates selected were bacterial species commonly associated with pneumonia. […] 2.2 Susceptibility testing
(§2) Antibacterial susceptibility testing was measured by JMI Labs (North Liberty, Iowa, USA). […] These clinical isolates were collected from US (n=4), Mexico (n=2), and Italy (n=1). Susceptibility testing was performed by broth microdilution in accordance with the Clinical and Laboratory and Standards Institute (CLSI) guidelines M07-A10 (2015) and the standard operating procedures at JMI laboratories. Minimum inhibitory concentrations (MICs) were based on CLSI criteria (2015). There are no published breakpoints for iclaprim. E. coli, K. pneumoniae, M. catarrhalis, E. faecalis, and S. aureus were tested in cation-adjusted Mueller-Hinton broth (CA-MHB). S. pneumoniae were tested in CA-MHB supplemented with 2.5-5% lysed horse blood, and H. influenza were tested in Haemophilus test medium. Quality control and interpretation of results were performed in accordance with CLSI M100-S26 (2016) methods. QC ranges for iclaprim were those approved by CLSI and published in M100-S26 (2016). Iclaprim and comparator antibiotic MIC results were within the CLSI published ranges against E. coli ATCC 25922, E. faecalis ATCC 29212, E. faecalis ATCC 33186, H. influenzae ATCC 49247, K. pneumoniae ATCC 700603 (ESBL phenotype), S. aureus ATCC 29213, and S. pneumoniae ATCC 49619. Isolates were tested with MIC panels (ThermoFisher Scientific, Cleveland, Ohio, USA) of comparator antibiotics (daptomycin and levofloxacin).
(§3) Because bovine pulmonary surfactant can introduce cloudiness to the MIC testing media, antimicrobial growth inhibition was also evaluated using the colorimetric metabolic indicator resazurin (Camlab Ltd., Cambridge, UK). […] S. pneumoniae panels were omitted from resazurin analysis because the color change was obscured by the lysed horse blood present in the test medium. Growth inhibition was then evaluated as a visible color change from blue (no growth) to pink (robust growth) and recorded as a MICRZ value.
(§4) The MICs of iclaprim, levofloxacin, and daptomycin were determined against Gram-positive and Gram-negative isolates.
(§5) A new vial of bovine pulmonary surfactant (BPS; Survanta®; Abbott Laboratories, Columbus, Ohio) was utilized for each independent experiment. Each vial was mixed thoroughly and a 100 μL aliquot was spread on an agar plate, which was incubated overnight to confirm sterility. […] The concentration of surfactant was expressed in terms of percent volume of Survanta® suspension, which consisted of phospholipid (25 mg/mL) and surfactant proteins (<1 mg/mL) in 0.9% sodium chloride solution (Goerke, 1998). MICs of daptomycin were determined in CAMHB with the Ca^2+ content adjusted to 50 mg/L.

[1] = Single-dose ECG study in healthy human volunteers (1.6 and 3.2 mg/kg over 30 minutes); format: in vivo; conditions: 3.2 mg/kg infused over 30 minutes
Protocol: Based on this, a single-dose ECG-study was conducted in healthy human volunteers, where 1.6 mg/kg and 3.2 mg/kg iclaprim was infused over 30 minutes. […] Maximal increases coincided with Cmax levels and were rapidly reversible. Weight-based dosing with 1.6 mg/kg was thus assessed as acceptable for clinical purposes, whereas weight-based dosing at 3.2 mg/kg was associated with relevant QTc prolongations (>60 msec) and nonspecific T-wave alterations, and was not used for further clinical studies.

S. aureus strain AH1252 = test: Neutropenic rat lung infection model; format: in vivo; conditions: iclaprim 80 mg/kg
Protocol: S. aureus strain AH1252, a thymidine knockout of the MRSA wild type AW6 strain, was utilized for this study. The bacterial strain was diluted in a 2% alginate buffer, which was added dropwise in a ratio of 1:5 into […] to form alginate beads. The alginate beads reduce the efficacy of bacterial clearance similar to that seen in the cystic fibrosis population. A 5.25×10^4 bacterial inoculum was administered to groups of 9 rats, intratracheally, with prepared alginate bacteria suspensions, under isoflurane anesthesia. […] Twelve hours after the last treatment, rats were euthanized and lungs collected for CFU determination.

E. faecalis = test: MIC with/without bovine pulmonary surfactant, E. faecalis; format: cell-based, Enterococcus faecalis; conditions: for MICRZ, Resazurin: +BPS: 2.5% v/v BPS; for MICRZ, Resazurin: no BPS
Protocol: as §1, §2, §3, §4, §5

M. catarrhalis = test: MIC with/without bovine pulmonary surfactant, M. catarrhalis; format: cell-based, Moraxella catarrhalis; conditions: for MICRZ, Resazurin: +BPS: 2.5% v/v BPS
Protocol: as §1, §2, §3, §4, §5

S. pneumoniae = test: MIC with/without bovine pulmonary surfactant, S. pneumoniae; format: cell-based; conditions: Streptococcus pneumoniae
Protocol: as §1, §2, §3, §4, §5

[2] = tested on: methicillin-resistant Staphylococcus aureus (MRSA) isolates; test: Broth microdilution MIC against MRSA nonsusceptible to daptomycin, linezolid or vancomycin; format: cell-based
Protocol: Antibacterial susceptibility testing was conducted on a range of MRSA strains and isolates with varying susceptibilities to several recognized antistaphylococcal antibiotics. Susceptibility testing was performed by broth microdilution in accordance with the Clinical and Laboratory and Standards Institute (CLSI) guidelines. Minimum inhibitory concentrations (MICs) were based on CLSI criteria.

K. pneumoniae = test: MIC with/without bovine pulmonary surfactant, K. pneumoniae; format: cell-based, Klebsiella pneumoniae; conditions: for MIC: Klebsiella pneumoniae
Protocol: as §1, §2, §3, §4, §5

[3] = tested on: isolated rabbit Purkinje fibers
[4] = S. aureus Clinical Isolate 825189
[5] = SC/BID 3 days, vancomycin 50 mg/kg

For COc1cc(Cc2cnc(N)nc2N)c2c(c1OC)OC(C1CC1)C=C2 (racemic) [Iclaprim], the “MICRZ, Resazurin: +BPS” value (S. aureus; S. aureus ATCC 29213) was 0.06 µg/mL, the “MICRZ, Resazurin” value (S. aureus; S. aureus ATCC 29213) was 0.06 µg/mL and the “MICRZ, Resazurin: +BPS” value (S. aureus; [4]) was 0.12 µg/mL. The “MICRZ, Resazurin” value (S. aureus; [4]) was 0.06 µg/mL, the QTc prolongations [1] was > 60 ms and the “72 hour lungs (CFU/gram of lung) log10CFU/Lung” value (S. aureus strain AH1252; [5]) was 3.34 log10CFU/Lung. The “Change in CFUs from 2 hr.” value (S. aureus strain AH1252; [5]) was 0.22 log 10 CFU, the “Survival >60 hrs” value (S. aureus strain AH1252; SC/BID 3 days, vancomycin 50 mg/kg, 9 rats) was 9/9 and the “survival compared to the infection controls” value (S. aureus strain AH1252; vancomycin 50 mg/kg SC/BID) was “increased survival”. For the same compound, the “Change in CFUs from 72 hr.” value (S. aureus strain AH1252; vs 72 hr infection controls, vancomycin 50 mg/kg SC/BID) was −5.34 log 10 CFU, the “MICRZ, Resazurin: +BPS” value (E. faecalis; E. faecalis ATCC 29212) was “<=0.015 μg/mL” and the “MICRZ, Resazurin” value (E. faecalis; E. faecalis ATCC 29212) was “<=0.015 μg/mL”. The “MICRZ, Resazurin: +BPS” value (E. faecalis; E. faecalis ATCC 33186) was “<=0.015 μg/mL”, the “MICRZ, Resazurin” value (E. faecalis; E. faecalis ATCC 33186) was 0.03 µg/mL and the “MICRZ, Resazurin: +BPS” value (M. catarrhalis; M. catarrhalis Clinical Isolate 893806) was 8 µg/mL. For the same compound, the “MICRZ, Resazurin” value (M. catarrhalis; M. catarrhalis Clinical Isolate 893806, no BPS) was 4 µg/mL, the “MICRZ, Resazurin: +BPS” value (M. catarrhalis; M. catarrhalis Clinical Isolate 893807) was 4 µg/mL and the “MICRZ, Resazurin” value (M. catarrhalis; M. catarrhalis Clinical Isolate 893807, no BPS) was 4 µg/mL. For the same compound, the MIC (M. catarrhalis; Moraxella catarrhalis, M. catarrhalis Clinical Isolate 893806, no BPS) was 4 mg/L (≈ 11.3 µM), the MIC (S. pneumoniae; ATCC49619, S. pneumoniae ATCC 49619, 2.5% v/v BPS, read-out: MIC, CLSI: +BPS) was 0.06 mg/L (≈ 0.169 µM) and the MIC (S. pneumoniae; ATCC49619, S. pneumoniae ATCC 49619, no BPS, read-out: MIC, CLSI) was 0.06 mg/L (≈ 0.169 µM). It also gave an MIC (S. pneumoniae; S. pneumoniae Clinical Isolate 818757, 2.5% v/v BPS, read-out: MIC, CLSI: +BPS) of 0.06 mg/L (≈ 0.169 µM), an MIC (S. pneumoniae; S. pneumoniae Clinical Isolate 818757, no BPS, read-out: MIC, CLSI) of 0.06 mg/L (≈ 0.169 µM) and an MIC (S. pneumoniae; S. pneumoniae Clinical Isolate 825175, 2.5% v/v BPS, read-out: MIC, CLSI: +BPS) of 0.12 mg/L (≈ 0.339 µM). The MIC (S. pneumoniae; S. pneumoniae Clinical Isolate 825175, no BPS, read-out: MIC, CLSI) was 0.12 mg/L (≈ 0.339 µM), the MIC ([2]; Staphylococcus aureus, MRSA, read-out: MIC to the majority of MRSA isolates) was ≤ 1 mg/L and the MIC50 ([2]; Staphylococcus aureus, 59 MRSA isolates) was 0.25 mg/L (≈ 0.705 µM). For the same compound, the “MRSA isolates with iclaprim MIC ≤1 μg/ml” value ([2]; isolates nonsusceptible to linezolid (25 of 25)) was 100%, the “isolates with reduced susceptibility, MICs >8 μg/mL” value ([2]; nine of 59 MRSA isolates) was 15.2% and the “MICRZ, Resazurin: +BPS” value (K. pneumoniae; K. pneumoniae ATCC 700603, 2.5% v/v BPS) was 4 µg/mL. The “MICRZ, Resazurin” value (K. pneumoniae; K. pneumoniae ATCC 700603, no BPS) was 4 µg/mL, the “MICRZ, Resazurin: +BPS” value (K. pneumoniae; K. pneumoniae Clinical Isolate 858055, 2.5% v/v BPS) was 2 µg/mL and the “MICRZ, Resazurin” value (K. pneumoniae; K. pneumoniae Clinical Isolate 858055, no BPS) was 2 µg/mL. It also gave an MIC (K. pneumoniae; ATCC700603, K. pneumoniae ATCC 700603, 2.5% v/v BPS, read-out: MIC, CLSI: +BPS) of 4 mg/L (≈ 11.3 µM), an MIC (K. pneumoniae; ATCC700603, K. pneumoniae ATCC 700603, no BPS, read-out: MIC, CLSI) of 4 mg/L (≈ 11.3 µM) and an MIC (K. pneumoniae; K. pneumoniae Clinical Isolate 858055, 2.5% v/v BPS, read-out: MIC, CLSI: +BPS) of 2 mg/L (≈ 5.64 µM). For the same compound, the MIC (K. pneumoniae; K. pneumoniae Clinical Isolate 858055, no BPS, read-out: MIC, CLSI) was 2 mg/L (≈ 5.64 µM) and the “iclaprim concentrations at which action potential duration was increased” value [3] was “above 1 μM”.

Source: US10080751B2, “Systems and methods for treating bacterial infection” (priority 2016, dated 2018)
